Measured values taken from ChEMBL document CHEMBL4028859, “Inhibition of Calcium Dependent Protein Kinase 1 (CDPK1) by Pyrazolopyrimidine Analogs Decreases Establishment and Reoccurrence of Central Nervous System Disease by Toxoplasma gondii” (J Med Chem, 2017).

How the values were obtained:
[1] = Apparent permeability from apical to basolateral side in human Caco2 cells at 5 uM by LC-MS/MS analysis; assay type: ADME, cell-based; conditions: caco-2, 5 µM
[2] = Apparent permeability from basolateral to apical side in human Caco2 cells at 5 uM by LC-MS/MS analysis; assay type: ADME, cell-based; conditions: caco-2, 5 µM
[3] = (§1) Tmax in Swiss albino mouse at 10 mg/kg, po administered as single dose by LC-MS/MS analysis; assay type: ADME, organism-based; conditions: Swiss albino, in vivo
[4] = Initial concentration in Swiss albino mouse at 3 mg/kg, iv administered as single dose by LC-MS/MS analysis; assay type: ADME, organism-based; conditions: in vivo
[5] = (§2) Cmax in Swiss albino mouse at 10 mg/kg, po administered as single dose by LC-MS/MS analysis; assay type: ADME, organism-based; design: dose 10 mg/kg, route oral; conditions: Swiss albino, in vivo
[6] = (§3) AUClast in Swiss albino mouse at 3 mg/kg, iv administered as single dose by LC-MS/MS analysis; assay type: ADME, organism-based; design: dose 3 mg/kg, time 0 - last, route intravenous; conditions: Swiss albino, in vivo
[7] = (§4) AUClast in Swiss albino mouse at 10 mg/kg, po administered as single dose by LC-MS/MS analysis; assay type: ADME, organism-based; design: dose 10 mg/kg, route oral, time 0 - last; conditions: Swiss albino, in vivo
[8] = (§5) AUC (infinity) in Swiss albino mouse at 3 mg/kg, iv administered as single dose by LC-MS/MS analysis; assay type: ADME, organism-based; design: dose 3 mg/kg, time infinity, route intravenous; conditions: Swiss albino, in vivo
[9] = (§6) AUC (infinity) in Swiss albino mouse at 10 mg/kg, po administered as single dose by LC-MS/MS analysis; assay type: ADME, organism-based; design: dose 10 mg/kg, time infinity, route oral; conditions: Swiss albino, in vivo
[10] = (§7) Volume of distribution at steady state in Swiss albino mouse at 3 mg/kg, iv administered as single dose by LC-MS/MS analysis; assay type: ADME, organism-based; conditions: Swiss albino, in vivo, read-out: Vdss
Mus musculus [11] = experiment: Oral bioavailability in Swiss albino mouse at 10 mg/kg administered as single dose by LC-MS/MS analysis; assay type: ADME, organism-based; conditions: in vivo
[12] = Dissociation constant, pKa of compound; assay type: physicochemical
Mus musculus [13] = experiment: as §1; assay type: ADME, organism-based; conditions: in vivo
Mus musculus [14] = experiment: as §2; assay type: ADME, organism-based; design: dose 10 mg/kg, route oral; conditions: in vivo
Mus musculus [15] = experiment: as §3; assay type: ADME, organism-based; design: dose 3 mg/kg, time 0 - last, route intravenous; conditions: in vivo
Mus musculus [16] = experiment: as §4; assay type: ADME, organism-based; design: dose 10 mg/kg, route oral, time 0 - last; conditions: in vivo
Mus musculus [17] = experiment: as §6; assay type: ADME, organism-based; design: dose 10 mg/kg, time infinity, route oral; conditions: in vivo
Mus musculus [18] = experiment: as §7; assay type: ADME, organism-based; conditions: in vivo
[19] = Ratio of total drug level in CNS to serum in Swiss albino mouse at 10 to 50 mg/kg, po administered as single dose upto 24 hrs by LC-MS/MS analysis; assay type: ADME, organism-based
[20] = Ratio of total drug level in brain to plasma in Swiss albino mouse at 10 to 50 mg/kg, po administered as single dose upto 24 hrs by LC-MS/MS analysis; assay type: ADME, organism-based; conditions: read-out: BPR
Mus musculus [21] = experiment: as §5; assay type: ADME, organism-based; design: dose 3 mg/kg, time infinity, route intravenous; conditions: in vivo

Row | SMILES | Papp [1] | Papp [2] | C0 [4] | pKa [12] | Tmax (Mus musculus [13]) | Cmax (Mus musculus [14]) | AUClast (Mus musculus [15]) | AUClast (Mus musculus [16]) | AUC (Mus musculus [17]) | Vdss (Mus musculus [18]) | also measured
1 | CC(C)(C)n1nc(Cc2cccc(Cl)c2)c2c(N)ncnc21 | 42.9 ×10⁻⁶ cm/s | 28.7 ×10⁻⁶ cm/s | 6890 ng/mL |  |  |  |  |  |  |  | Tmax [3]: 15 min; Cmax [5]: 585 ng/mL; AUC(0-t) [6]: 1080 ng·h/mL; AUC(0-t) [7]: 919 ng·h/mL; AUC(0-inf) [8]: 1080 ng·h/mL; AUC(0-inf) [9]: 931 ng·h/mL; Vd [10]: 1.09 L/kg; F (Mus musculus [11]): 26%
2 | CC(C)(C)n1nc(Oc2cccc(Cl)c2)c2c(N)ncnc21 | 34.8 ×10⁻⁶ cm/s | 30.6 ×10⁻⁶ cm/s | 5470 ng/mL |  | 15 min | 1136.36 ng/mL |  | 1172.75 ng·h/mL | 1279.2 ng·h/mL | 1.1 L/kg | 
3 | Nc1ncnc2c1c(Sc1cccc(Cl)c1)nn2CC1CCNCC1(F)F (configuration not stated) | 27.1 ×10⁻⁶ cm/s | 25.3 ×10⁻⁶ cm/s |  | 7.1 |  |  |  |  |  |  | 
4 | Cc1cccc(Oc2nn(C(C)(C)C)c3ncnc(N)c23)c1 | 15 ×10⁻⁶ cm/s | 14.6 ×10⁻⁶ cm/s | 2740 ng/mL |  | 15 min | 76.69 ng/mL | 619.33 ng·h/mL | 85.47 ng·h/mL | 91.42 ng·h/mL | 2.32 L/kg | AUC (Mus musculus [21]): 625.04 ng·h/mL

Continued, in another order:

Row | Papp [1] | Papp [2] | C0 [4] | pKa [12] | Tmax (Mus musculus [13]) | Cmax (Mus musculus [14]) | AUClast (Mus musculus [15]) | AUClast (Mus musculus [16]) | AUC (Mus musculus [17]) | Vdss (Mus musculus [18]) | SMILES | also measured
5 | 22.8 ×10⁻⁶ cm/s | 21.2 ×10⁻⁶ cm/s | 1210 ng/mL | 7.1 | 15 min | 1048.8 ng/mL | 975.9 ng·h/mL | 3058.44 ng·h/mL | 3547.95 ng·h/mL | 3.68 L/kg | Nc1ncnc2c1c(Oc1cccc(Cl)c1)nn2CC1CCNCC1(F)F (configuration not stated) | Kp at 24 h [19]: 5.6; Kp at 24 h [20]: 1.3
6 | 2.76 ×10⁻⁶ cm/s | 25.6 ×10⁻⁶ cm/s |  | 10.4 |  |  |  |  |  |  | Nc1ncnc2c1c(Sc1cccc(Cl)c1)nn2CC1CCNCC1 | 
7 | 1.07 ×10⁻⁶ cm/s | 9.58 ×10⁻⁶ cm/s | 536 ng/mL | 10.4 | 120 min | 182.56 ng/mL | 449.57 ng·h/mL | 757.85 ng·h/mL | 891.24 ng·h/mL | 19.59 L/kg | Nc1ncnc2c1c(Oc1cccc(Cl)c1)nn2CC1CCNCC1 | 
